Earlier results in patent US4661473A, “Renin inhibitors containing peptide isosteres” (Merck & Co., Inc., priority 1984, dated 1987).

Test system: hog renin
Details: after the injection of hog renin into nephrectomized rats; Gross et al. 1971

Pepstatin
blood pressure in vivo: reduce blood pressure in vivo
